Results on 25 molecules are retold here after US7473669B2, “Substituted 4,5-dihydro-1,2,4-triazin-6-ones, 1,2,4-triazin-6-ones, and their use as fungicides” (priority 2005, dated 2009).

Where two headings read alike, the source gives them in different places.

What all share (format): in vivo
For one assay, the system named is Pyricularia oryzae. The experiment in a line: whole plant or invertebrate. Particulars: 24 h, read-out: PYRIOR percent control rating.
Another assay relates to Leptosphaeria nodorum. The experiment in a line: Glume Blotch of Wheat greenhouse one-day protectant test. Particulars: Parastagonospora nodorum, 24 h, read-out: LEPTNO percent control rating.
In assay [1] the test system is Puccinia recondita tritici. The experiment in a line: Leaf Rust of Wheat greenhouse one-day protectant test. Particulars: 24 h, read-out: PUCCRT percent control rating.
A further assay has as its system Colletotricum lagenarium. As to the kind of experiment: Cucumber Anthracnose greenhouse one-day protectant test. Particulars: Cucumis sativus, 24 h, read-out: COLLLA percent control rating.
For the next assay, the system named is Erysiphe cichoracaerum. As to the kind of experiment: Cucumber Powdery Mildew greenhouse one-day protectant test. Particulars: 24 h, read-out: ERYSCI percent control rating.
The test system of a further assay is Phytophthora infestans. As to the kind of experiment: whole plant or invertebrate. Particulars: in Solanum lycopersicum, 24 h.
The mark [2] stands for this setting: wheat plants, one-day protectant test, 200 ppm application rate.
Where [3] appears, read: cucumber plants, one-day protectant test, 200 ppm application rate.
Setting [4] is: read-out: PHYTIN percent control rating, tomato plants, one-day protectant test, 200 ppm application rate.

For the molecule `CS(=O)(=O)OCCN1N=C(c2ccc(Cl)nc2)NCC1=O` [Compound 1], the pest or weed control at 200 ppm lay within 50 to 79% with Pyricularia oryzae; 0 to 49% with Leptosphaeria nodorum (setting [2]); 0 to 49% in assay [1] (setting [2]); 0 to 49% in the assay on Colletotricum lagenarium (setting [3]); 0 to 49% with Erysiphe cichoracaerum (setting [3]); 0 to 49% in the assay with Phytophthora infestans (setting [4]).
For `Cc1cc(C)cc(C2=NN(CCO)C(=O)CN2)c1` [Compound 2], the pest or weed control at 200 ppm in the assay with Pyricularia oryzae is 80 to 100%; in the assay on Leptosphaeria nodorum (setting [2]) it was 0 to 49%; in assay [1] (setting [2]), 0 to 49%; with Colletotricum lagenarium (setting [3]) it was 0 to 49%; in the assay on Erysiphe cichoracaerum (setting [3]), 0 to 49%; with Phytophthora infestans (setting [4]) it was 0 to 49%.
As to `Cc1cc(C)cc(C2=NN(CCOC(=O)Nc3ccc4c(c3)OCO4)C(=O)CN2)c1` [Compound 3], the pest or weed control at 200 ppm was 80 to 100% with Pyricularia oryzae; 50 to 79% in the assay on Leptosphaeria nodorum (setting [2]); 80 to 100% in assay [1] (setting [2]); 50 to 79% in the assay on Colletotricum lagenarium (setting [3]); 0 to 49% in the assay on Erysiphe cichoracaerum (setting [3]); 0 to 49% in the assay on Phytophthora infestans (setting [4]).
For `O=C1CNC(c2ccccc2)=NN1CCO` [Compound 4], the pest or weed control at 200 ppm (in the assay on Pyricularia oryzae; in the assay with Leptosphaeria nodorum (setting [2]); in assay [1] (setting [2]); with Colletotricum lagenarium (setting [3]); in the assay on Erysiphe cichoracaerum (setting [3]); with Phytophthora infestans (setting [4])) was 0 to 49% in each case.
As to `Cc1cc(C)cc(C2=NN(Cc3ccccn3)C(=O)CN2)c1` [Compound 5], the pest or weed control at 200 ppm was in the range of 0 to 49% in the assay with Pyricularia oryzae; 80 to 100% in the assay on Leptosphaeria nodorum (setting [2]); 0 to 49% in assay [1] (setting [2]); 50 to 79% with Colletotricum lagenarium (setting [3]); 0 to 49% in the assay with Erysiphe cichoracaerum (setting [3]); 0 to 49% in the assay on Phytophthora infestans (setting [4]).
Turning to `O=C1CNC(c2cc(Cl)cc(Cl)c2)=NN1Cc1ccccn1` [Compound 6], the pest or weed control at 200 ppm lay within 80 to 100% with Pyricularia oryzae; 80 to 100% in the assay with Leptosphaeria nodorum (setting [2]); 80 to 100% in assay [1] (setting [2]); 50 to 79% in the assay on Colletotricum lagenarium (setting [3]); 0 to 49% in the assay with Erysiphe cichoracaerum (setting [3]); 0 to 49% in the assay with Phytophthora infestans (setting [4]).
In the case of `O=C1CNC(c2cc(Cl)cc(Cl)c2)=NN1CCO` [Compound 7], the pest or weed control at 200 ppm in the assay on Pyricularia oryzae lay within 0 to 49%; in the assay on Leptosphaeria nodorum (setting [2]) it was 50 to 79%; in assay [1] (setting [2]) it was 50 to 79%; in the assay on Colletotricum lagenarium (setting [3]), 0 to 49%; in the assay with Erysiphe cichoracaerum (setting [3]) it was 0 to 49%; with Phytophthora infestans (setting [4]), 0 to 49%.
In the case of `O=C1CNC(c2cc(Cl)cc(Cl)c2)=NN1CO` [Compound 8], the pest or weed control at 200 ppm lay within 0 to 49% in the assay on Pyricularia oryzae; 50 to 79% with Leptosphaeria nodorum (setting [2]); 0 to 49% in assay [1] (setting [2]); 0 to 49% in the assay on Colletotricum lagenarium (setting [3]); 0 to 49% in the assay on Erysiphe cichoracaerum (setting [3]); 0 to 49% in the assay on Phytophthora infestans (setting [4]).
With `O=C1CNC(c2ccc(Cl)c(Cl)c2)=NN1CO` [Compound 9], the pest or weed control at 200 ppm in the assay with Pyricularia oryzae lay in the range of 0 to 49%; with Leptosphaeria nodorum (setting [2]) it was 80 to 100%; in assay [1] (setting [2]), 50 to 79%; in the assay on Colletotricum lagenarium (setting [3]), 0 to 49%; in the assay with Erysiphe cichoracaerum (setting [3]) it was 0 to 49%; in the assay on Phytophthora infestans (setting [4]), 0 to 49%.
`O=C1CNC(c2ccc(Cl)c(Cl)c2)=NN1C(=O)C(F)(F)F` [Compound 10]: the pest or weed control at 200 ppm with Pyricularia oryzae lay within 80 to 100%; with Leptosphaeria nodorum (setting [2]), 50 to 79%; in assay [1] (setting [2]), 0 to 49%; in the assay with Colletotricum lagenarium (setting [3]) it was 50 to 79%; in the assay with Erysiphe cichoracaerum (setting [3]), 0 to 49%; in the assay on Phytophthora infestans (setting [4]), 0 to 49%.
For `O=C1CNC(c2cc(Cl)cc(Cl)c2)=NN1C(=O)C(F)(F)F` [Compound 11], the pest or weed control at 200 ppm in the assay on Pyricularia oryzae is 50 to 79%; with Leptosphaeria nodorum (setting [2]) it was 50 to 79%; in assay [1] (setting [2]) it was 0 to 49%; in the assay on Colletotricum lagenarium (setting [3]) it was 50 to 79%; with Erysiphe cichoracaerum (setting [3]), 0 to 49%; with Phytophthora infestans (setting [4]), 0 to 49%.
`CC(=O)OCN1N=C(c2ccc(Cl)c(Cl)c2)NCC1=O` [Compound 14]: the pest or weed control at 200 ppm was 0 to 49% with Pyricularia oryzae; 0 to 49% with Leptosphaeria nodorum (setting [2]); 50 to 79% in assay [1] (setting [2]); 0 to 49% in the assay with Colletotricum lagenarium (setting [3]); 0 to 49% with Erysiphe cichoracaerum (setting [3]); 0 to 49% in the assay with Phytophthora infestans (setting [4]).
In the case of `O=C1CNC(c2cc(Cl)cc(Cl)c2)=NN1CN1CCOCC1` [Compound 15], the pest or weed control at 200 ppm with Pyricularia oryzae was in the range of 80 to 100%; in the assay with Leptosphaeria nodorum (setting [2]), 50 to 79%; in assay [1] (setting [2]) it was 0 to 49%; in the assay on Colletotricum lagenarium (setting [3]), 0 to 49%; with Erysiphe cichoracaerum (setting [3]) it was 0 to 49%; in the assay with Phytophthora infestans (setting [4]), 0 to 49%.
Regarding `CCCCN1N=C(c2ccc(Oc3cccnc3)cc2)NCC1=O` [Compound 16], the pest or weed control at 200 ppm with Pyricularia oryzae is 0 to 49%; in the assay on Leptosphaeria nodorum (setting [2]), 0 to 49%; in assay [1] (setting [2]) it was 80 to 100%; in the assay with Colletotricum lagenarium (setting [3]), 0 to 49%; in the assay with Erysiphe cichoracaerum (setting [3]), 0 to 49%; in the assay with Phytophthora infestans (setting [4]) it was 0 to 49%.
Regarding `O=C1CNC(c2cccc(OCc3ccccc3)c2)=NN1CC(F)(F)F` [Compound 17], the pest or weed control at 200 ppm in the assay with Pyricularia oryzae was in the range of 80 to 100%; in the assay with Leptosphaeria nodorum (setting [2]) it was 80 to 100%; in assay [1] (setting [2]), 80 to 100%; with Colletotricum lagenarium (setting [3]), 80 to 100%; with Erysiphe cichoracaerum (setting [3]), 0 to 49%; in the assay on Phytophthora infestans (setting [4]), 0 to 49%.
As to `N#CCCN1N=C(c2cccc(OCc3ccccc3)c2)NCC1=O` [Compound 18], the pest or weed control at 200 ppm in the assay on Pyricularia oryzae was in the range of 50 to 79%; with Leptosphaeria nodorum (setting [2]), 50 to 79%; in assay [1] (setting [2]), 80 to 100%; with Colletotricum lagenarium (setting [3]) it was 50 to 79%; in the assay with Erysiphe cichoracaerum (setting [3]), 0 to 49%; with Phytophthora infestans (setting [4]), 0 to 49%.
As to `O=C1CNC(c2cccc(OCc3ccccc3)c2)=NN1CCF` [Compound 19], the pest or weed control at 200 ppm in the assay on Pyricularia oryzae was 50 to 79%; in the assay on Leptosphaeria nodorum (setting [2]) it was 50 to 79%; in assay [1] (setting [2]) it was 80 to 100%; in the assay on Colletotricum lagenarium (setting [3]), 0 to 49%; in the assay on Erysiphe cichoracaerum (setting [3]), 0 to 49%; in the assay with Phytophthora infestans (setting [4]), 0 to 49%.
Regarding `O=C1CNC(c2cccc(OCc3ccccc3)c2)=NN1Cc1ccccc1` [Compound 20], the pest or weed control at 200 ppm with Pyricularia oryzae is 80 to 100%; in the assay on Leptosphaeria nodorum (setting [2]), 50 to 79%; in assay [1] (setting [2]) it was 80 to 100%; in the assay on Colletotricum lagenarium (setting [3]), 0 to 49%; in the assay with Erysiphe cichoracaerum (setting [3]), 0 to 49%; in the assay on Phytophthora infestans (setting [4]), 0 to 49%.
With `O=C1CNC(c2cccc(OCc3ccccc3)c2)=NN1c1cccc(Br)c1` [Compound 21], the pest or weed control at 200 ppm in the assay on Pyricularia oryzae is 80 to 100%; with Leptosphaeria nodorum (setting [2]), 50 to 79%; in assay [1] (setting [2]), 50 to 79%; with Colletotricum lagenarium (setting [3]), 0 to 49%; in the assay with Erysiphe cichoracaerum (setting [3]), 0 to 49%; in the assay on Phytophthora infestans (setting [4]) it was 0 to 49%.
`O=C1CNC(c2cccc(O)c2)=NN1CC(F)(F)F` [Compound 22]: the pest or weed control at 200 ppm in the assay with Pyricularia oryzae lay in the range of 0 to 49%; with Leptosphaeria nodorum (setting [2]), 0 to 49%; in assay [1] (setting [2]) it was 50 to 79%; with Colletotricum lagenarium (setting [3]) it was 0 to 49%; in the assay on Erysiphe cichoracaerum (setting [3]), 0 to 49%; in the assay with Phytophthora infestans (setting [4]), 0 to 49%.
As for `O=C1CNC(c2cccc(OS(=O)(=O)C(F)(F)F)c2)=NN1CC(F)(F)F` [Compound 23], the pest or weed control at 200 ppm in the assay on Pyricularia oryzae fell in the range of 80 to 100%; with Leptosphaeria nodorum (setting [2]), 50 to 79%; in assay [1] (setting [2]) it was 50 to 79%; in the assay with Colletotricum lagenarium (setting [3]), 0 to 49%; in the assay on Erysiphe cichoracaerum (setting [3]), 0 to 49%; in the assay on Phytophthora infestans (setting [4]), 0 to 49%.
Regarding `O=C1CNC(c2cccc(Oc3cc(C(F)(F)F)cc(C(F)(F)F)n3)c2)=NN1CC(F)(F)F` [Compound 24], the pest or weed control at 200 ppm fell in the range of 0 to 49% with Pyricularia oryzae; 80 to 100% in the assay on Leptosphaeria nodorum (setting [2]); 80 to 100% in assay [1] (setting [2]); 0 to 49% in the assay with Colletotricum lagenarium (setting [3]); 0 to 49% in the assay on Erysiphe cichoracaerum (setting [3]); 0 to 49% in the assay with Phytophthora infestans (setting [4]).
For `O=C(Nc1c(Cl)cccc1Cl)Oc1cccc(C2=NN(CC(F)(F)F)C(=O)CN2)c1` [Compound 25], the pest or weed control at 200 ppm (with Pyricularia oryzae; in the assay with Leptosphaeria nodorum; in assay [1]; in the assay on Colletotricum lagenarium; in the assay on Erysiphe cichoracaerum; in the assay with Phytophthora infestans (read-out: PHYTIN percent control rating)) was 0 to 49% throughout.
For the molecule `O=C1CNC(c2cc(C=Cc3ccccc3)cc(-c3ccsc3)c2)=NN1CC(F)(F)F` [Compound 26], the pest or weed control at 200 ppm in the assay on Pyricularia oryzae lay within 0 to 49%; with Leptosphaeria nodorum (setting [2]), 50 to 79%; in assay [1] (setting [2]), 0 to 49%; with Colletotricum lagenarium (setting [3]) it was 0 to 49%; in the assay on Erysiphe cichoracaerum (setting [3]), 0 to 49%; with Phytophthora infestans (setting [4]) it was 0 to 49%.
With `O=C1C(SC2CCCCC2)NC(c2ccc(F)c(-c3ccccc3)c2)=NN1CC(F)(F)F` (stereo not shown) [Compound 48], the pest or weed control at 200 ppm in the assay with Pyricularia oryzae fell in the range of 80 to 100%; in the assay on Leptosphaeria nodorum (setting [2]) it was 80 to 100%; in assay [1] (setting [2]), 80 to 100%; in the assay on Erysiphe cichoracaerum (setting [3]), 0 to 49%.
